Patent publication US20190076496A1, “POLYSACCHARIDE DIGESTION INHIBITOR” (Q' SAI CO., LTD., priority 2016, published 2019)

Key:
Assay type in all cases: in vivo
[1] = system: GK rat (Goto-Kakizaki rat); assay: Measurement of blood glucose level after loading starch; details: 60 minutes after starch 2 g/kg; acarbose 10 mg/kg body weight oral
Description: Each GK rat (Goto-Kakizaki rat) was allowed to orally ingest an Astilbe thunbergii extract and immediately thereafter to orally ingest starch, and the blood glucose level up to 2 hours later was measured over time (Approach 4). In the case of a GK rat, since hyperglycemia is caused due to its low insulin secretion amount after meal, it is possible to sensitively analyze the influence of drugs on the digestion and absorption of saccharides.
[Approach 4: Measurement of Blood Glucose Level after Loading Starch]
GK rats (male, 5 weeks old) were obtained from Japan SLC, Inc. and preliminarily bred for 1 week before use. Seven rats per experimental group were used.
(1) Japanese Pharmacopeia water for injection (a negative control))
(2) A solution having acarbose dissolved in the water for injection (a positive control); administered at 10 mg/kg body weight
(3) A suspension having the hydrous ethanol extract of Astilbe thunbergii suspended in the water for injection; administered at 100 mg/kg body weight or 300 mg/kg body weight […]
Each GK rat was fasted for 18 hours and its fasting blood glucose level was then measured. […] Blood was collected from the tail vein 30, 60, 90 and 120 minutes after the administration of starch, and the blood glucose level was measured using a simple type blood glucose meter (NIPRO Freestyle Freedom Lite, FS Blood Glucose Sensor Light, manufactured by Nipro Corporation).

[2] = system: GK rat (Goto-Kakizaki rat); assay: Measurement of blood glucose level after loading sucrose; details: 90 minutes after sucrose 2 g/kg; acarbose 10 mg/kg oral
Description: Each GK rat was fasted for 18 hours and its fasting blood glucose level was then measured. Thereafter, the test substance was orally administered to the rat using a disposable gastric probe and a disposable syringe. Two minutes after the administration of the test substance, starch (dissolved in purified water, at 2 g/kg body weight) was administered in a single oral dose. Blood was collected from the tail vein 30, 60, 90 and 120 minutes after the administration of starch, and the blood glucose level was measured using a simple type blood glucose meter (NIPRO Freestyle Freedom Lite, FS Blood Glucose Sensor Light, manufactured by Nipro Corporation).
As described above, since the digestion process from starch to dextrose depends on the enzyme activities of both α-amylase and α-glucosidase, it cannot be ruled out from the results of Test Example 3 that the Astilbe thunbergii extract might inhibit only one of the enzyme activities in the body of an animal (the activity of the other enzyme activity cannot be inhibited). Accordingly, the digestion inhibitory effect of Astilbe thunbergii extract was analyzed using sucrose for which the digestion process depends only on α-glucosidase. Specifically, in the Approach 4, the blood glucose was measured using “sucrose (dissolved in purified water, at 2 g/kg body weight)” instead of “starch (dissolved in purified water, at 2 g/kg body weight)”. […]

[3] = system: GK rat (Goto-Kakizaki rat); assay: Measurement of blood glucose level after loading glucose (dextrose)
Description: Specifically, each GK rat was allowed to orally ingest the Astilbe thunbergii extract and dextrose and its influence on a change in the blood glucose level was analyzed (Approach 5). In this analysis, an experiment group orally ingesting anagliptin, a DPP-IV inhibitor, was used as a positive control.
[Approach 5: Measurement of Blood Glucose Level after Loading Glucose]
(1) Japanese Pharmacopeia water for injection (a negative control)
(2) A solution having anagliptin dissolved in the water for injection (a positive control); administered at 10 mg/kg body weight
(3) A suspension having, the hydrous ethanol extract of Astilbe thunbergii prepared in the Test Example 2, suspended in the water for injection; administered at 100 mg/kg body weight or 300 mg/kg body weight
Administration and Measurement of Blood Glucose Level
Each GK rat (8-week-old male rat, 7 rats/experimental group) was fasted for 18 hours and its fasting blood glucose level was then measured. Thereafter, the test substance was orally administered to the rat using a disposable gastric probe and a disposable syringe. […] Blood was collected from the tail vein 30, 60, 90 and 120 minutes after the administration of dextrose, and the blood glucose level was measured using a simple type blood glucose meter (NIPRO Freestyle Freedom Lite, FS Blood Glucose Sensor Light, manufactured by Nipro Corporation).

C[C@H]1O[C@H](O[C@H]2[C@H](O)[C@@H](O)[C@@H](O[C@H]3[C@H](O)[C@@H](O)C(O)O[C@@H]3CO)O[C@@H]2CO)[C@H](O)[C@@H](O)[C@@H]1N[C@H]1C=C(CO)[C@@H](O)[C@H](O)[C@H]1O (stereo partly shown) [acarbose]
blood glucose level [1]: 117 ± 43 mg/dL
blood glucose level [2]: 161 ± 45 mg/dL

Cc1cc2ncc(C(=O)NCC(C)(C)NCC(=O)N3CCC[C@H]3C#N)cn2n1 [anagliptin]
glucose AUC compared with negative control ([3]; 0 to 120 minutes after dextrose, anagliptin 10 mg/kg, extract 100 or 300 mg/kg): significantly decreases the glucose AUC
time course of blood glucose level compared with negative control ([3]; after dextrose 2 g/kg, anagliptin 10 mg/kg oral, decrease since 60 minutes later): began to decrease earlier than that in the negative control
